Data: patent publication US20050245399A1, “Pyrazole derivatives as herbicidal compositions containing them” (ISHIHARA SANGYO KAISHA, LTD., priority 2004, published 2005)

What was measured:
Assay type in all cases: in vivo
[1] = system: barnyardgrass (Echinochloa crus-galli L.): ECHCG; assay: Test Example 1 pre-emergence herbicidal activity, ECHCG; details: visually observed 20th to 23rd day after application
Description: (§1) Upland field soil was put into a 1/170,000 ha pot, and seeds of various plants {1. barnyardgrass (Echinochloa crus-galli L.): ECHCG, 2. crabgrass (Digitaria sanguinalis L.): DIGSA, 3. green foxtail (Setaria viridis L.): SETVI, 4. redroot pigweed (Amaranthus retroflexus L.): AMARE, 5. prickly sida (Sida spinosa L.): SEDSP, 6. velvetleaf (Abutilon theophrasti): ABUTH, 7. common cocklebur (Xanthium strumarium L.): XANST, 8. rice (Oryza sativa L.): ORYSA, 9. wheat (Triticum aestivum L.): TRZAX, 10. corn (Zea mays L.): ZEAMX, 11. soybean (Glycine max Merr.): GLXMA} were sown. Then, one day after the sowing, a wettable powder or emulsifiable concentrate having the compound of the present invention formulated in accordance with a usual formulation method, was weighed so that the active ingredient would be a predetermined amount and diluted with water in an amount of 500 L/ha. The herbicide adjusted was applied by a small size sprayer for preemergence treatment. On the 20th to 23rd day after the application of the herbicide, the growth of the respective plants was visually observed, and the herbicidal effects were evaluated by growth controlling degrees (%) ranging from 0 (equivalent to the untreated control) to 100 (complete kill), whereby the results shown in Table 4, were obtained. Compound Nos. in Table 4 correspond to Compound Nos. in Table 1 and 2 given hereinbefore.

[2] = system: redroot pigweed (Amaranthus retroflexus L.): AMARE; assay: Test Example 1 pre-emergence herbicidal activity, AMARE; details: Rate 63 g a.i./ha, visually observed 20th to 23rd day after application
Description: as §1

[3] = system: corn (Zea mays L.): ZEAMX; assay: Test Example 1 pre-emergence herbicidal activity, ZEAMX; details: visually observed 20th to 23rd day after application
Description: as §1

[4] = system: soybean (Glycine max Merr.): GLXMA; assay: Test Example 1 pre-emergence herbicidal activity, GLXMA; details: visually observed 20th to 23rd day after application
Description: as §1

[5] = system: prickly sida (Sida spinosa L.), SIDSP; assay: Test Example 2 post-emergence (foliage treatment) herbicidal activity, SIDSP; details: 63 g a.i./ha
Description: (§2) Upland field soil was put into a 1/170,000 ha pot, and seeds of various plants were sown. Then, when the plants reached predetermined leaf stages {1. barnyardgrass (Echinochloa crus-galli L.), ECHCG: 1.1-2.1 leaf stage, 2. crabgrass (Digitaria sanguinalis L.), DIGSA: 1.0-2.0 leaf stage, 3. green foxtail (Setaria viridis L.), SETVI: 1.0-2.2 leaf stage, 4. redroot pigweed (Amaranthus retroflexus L.), AMARE: 0.1-1.5 leaf stage, 5. prickly sida (Sida spinosa L.), SIDSP: 0.1-0.6 leaf stage, 6. velvetleaf (Abutilon theophrasti), ABUTH: 0.1-0.6 leaf stage, 7. common cocklebur (Xanthium strumarium L.), XANST: 0.1 leaf stage, 8. rice (Oryza sativa L.), ORYSA; 1.0-2 leaf stage, 9. wheat (Triticum aestivum L.), TRZAX: 2.3-3.5 leaf stage, 10. corn (Zea mays L.), ZEAMXN 2.1-2.6 leaf stage, 11. soybean (Glycine max Merr.), GLXMA: primary leaf stage}, a wettable powder or emulsifiable concentrate having the compound of the present invention formulated in accordance with a usual formulation method, was weighed so that the active ingredient would be a predetermined amount, and diluted with water in an amount of 500 L/ha. To the diluted solution, 0.1% (v/v) of an agricultural spreader was added. The herbicide adjusted was applied by a small size sprayer for foliage treatment. On the 20th to 23rd day after the application of the herbicide, the growth of the respective plants was visually observed, and the herbicidal effects were evaluated by growth controlling degrees (%) ranging from 0 (equivalent to the untreated control) to 100 (complete kill), whereby the results shown in Table 5, were obtained. Compound Nos. in Table 5 correspond to Compound Nos. in Table 1 and 2 given hereinbefore.

[6] = system: wheat (Triticum aestivum L.), TRZAX; assay: Test Example 2 post-emergence (foliage treatment) herbicidal activity, TRZAX; details: 63 g a.i./ha
Description: as §2

[7] = system: barnyardgrass (Echinochloa crus-galli L.), ECHCG; assay: Test Example 2 post-emergence (foliage treatment) herbicidal activity, ECHCG; details: 63 g a.i./ha
Description: as §2

[8] = system: green foxtail (Setaria viridis L.), SETVI; assay: Test Example 2 post-emergence (foliage treatment) herbicidal activity, SETVI; details: 63 g a.i./ha
Description: as §2

[9] = system: rice (Oryza sativa L.), ORYSA; assay: Test Example 2 post-emergence (foliage treatment) herbicidal activity, ORYSA; details: 63 g a.i./ha
Description: as §2

[10] = system: velvetleaf (Abutilon theophrasti), ABUTH; assay: Test Example 2 post-emergence (foliage treatment) herbicidal activity, ABUTH; details: 63 g a.i./ha
Description: as §2

[11] = system: crabgrass (Digitaria sanguinalis L.): DIGSA; assay: Test Example 1 pre-emergence herbicidal activity, DIGSA; details: visually observed 20th to 23rd day after application
Description: as §1

[12] = system: green foxtail (Setaria viridis L.): SETVI; assay: Test Example 1 pre-emergence herbicidal activity, SETVI; details: visually observed 20th to 23rd day after application
Description: as §1

[13] = system: soybean (Glycine max Merr.), GLXMA; assay: Test Example 2 post-emergence (foliage treatment) herbicidal activity, GLXMA; details: 63 g a.i./ha
Description: as §2

[14] = system: corn (Zea mays L.), ZEAMX; assay: Test Example 2 post-emergence (foliage treatment) herbicidal activity, ZEAMX; details: 63 g a.i./ha
Description: as §2

[15] = system: prickly sida (Sida spinosa L.): SEDSP; assay: Test Example 1 pre-emergence herbicidal activity, SIDSP; details: visually observed 20th to 23rd day after application
Description: as §1

[16] = system: rice (Oryza sativa L.): ORYSA; assay: Test Example 1 pre-emergence herbicidal activity, ORYSA; details: visually observed 20th to 23rd day after application
Description: as §1

[17] = system: crabgrass (Digitaria sanguinalis L.), DIGSA; assay: Test Example 2 post-emergence (foliage treatment) herbicidal activity, DIGSA; details: 63 g a.i./ha
Description: as §2

[18] = system: velvetleaf (Abutilon theophrasti): ABUTH; assay: Test Example 1 pre-emergence herbicidal activity, ABUTH; details: visually observed 20th to 23rd day after application
Description: as §1

[19] = system: wheat (Triticum aestivum L.): TRZAX; assay: Test Example 1 pre-emergence herbicidal activity, TRZAX; details: visually observed 20th to 23rd day after application
Description: as §1

[20] = system: redroot pigweed (Amaranthus retroflexus L.), AMARE; assay: Test Example 2 post-emergence (foliage treatment) herbicidal activity, AMARE; details: 63 g a.i./ha
Description: as §2

Structure (SMILES) | Pre-emergence Herbicidal Activity ECHCG (growth controlling degree) ([1]; Rate 63 g a.i./ha) [%] | Pre-emergence Herbicidal Activity AMARE (growth controlling degree) [2] [%] | Pre-emergence Herbicidal Activity ZEAMX (growth controlling degree) ([3]; Rate 63 g a.i./ha) [%] | Pre-emergence Herbicidal Activity GLXMA (growth controlling degree) ([4]; Rate 63 g a.i./ha) [%] | growth controlling degree, SIDSP [5] [%] | growth controlling degree, TRZAX [6] [%] | growth controlling degree, ECHCO [7] [%] | growth controlling degree, SETVI [8] [%] | growth controlling degree, ORYSA [9] [%] | growth controlling degree, ABUTH [10] [%] | Pre-emergence Herbicidal Activity DIGSP (growth controlling degree) ([11]; Rate 63 g a.i./ha) [%] | Pre-emergence Herbicidal Activity SETVI (growth controlling degree) ([12]; Rate 63 g a.i./ha) [%] | growth controlling degree, GLXMA [13] [%] | growth controlling degree, ZEAMX [14] [%] | Pre-emergence Herbicidal Activity SIDSP (growth controlling degree) ([15]; Rate 63 g a.i./ha) [%] | Pre-emergence Herbicidal Activity ORYSA (growth controlling degree) ([16]; Rate 63 g a.i./ha) [%] | growth controlling degree, DIGSP [17] [%] | Pre-emergence Herbicidal Activity ABUTH (growth controlling degree) ([18]; Rate 63 g a.i./ha) [%] | Pre-emergence Herbicidal Activity TRZAX (growth controlling degree) ([19]; Rate 63 g a.i./ha) [%] | further results
COc1c(Cl)cc(F)c(-c2nn(C)c(OC(F)F)c2Cl)c1NC(=O)C=Cc1ccccc1F [Compound 1-256] | 60 | 100 | 0 | 0 | 100 | 60 | 60 | 90 | 80 | 100 | 90 | 70 | 60 | 30 | 60 | 30 | 60 | 70 | 10 | 
COc1c(Cl)cc(F)c(-c2nn(C)c(OC(F)F)c2Cl)c1NC(=O)C=Cc1cccc(F)c1 [Compound 1-257] | 30 | 100 | 0 | 0 | 100 | 50 | 60 | 70 | 40 | 100 | 10 | 10 | 40 | 30 | 60 | 20 | 50 | 10 | 0 | 
COc1c(Cl)cc(F)c(-c2nn(C)c(OC(F)F)c2Cl)c1NC(=O)CC(C)(C)C [Compound 1-265] | 20 | 100 | 0 | 0 | 100 | 30 | 60 | 80 | 40 | 95 | 100 | 70 | 50 | 30 | 100 | 10 | 60 | 100 | 20 | 
COc1c(Cl)cc(F)c(-c2nn(C)c(OC(F)F)c2Cl)c1N(C=O)CCOc1ccccc1 [Compound 1-43] |  |  |  |  |  | 10 | 40 | 70 | 30 | 100 |  |  | 40 | 10 |  |  | 20 |  |  | Pre-emergence Herbicidal Activity ECHCG (growth controlling degree) ([1]; Rate 125 g a.i./ha): 0%; Pre-emergence Herbicidal Activity ZEAMX (growth controlling degree) ([3]; Rate 125 g a.i./ha): 0%; Pre-emergence Herbicidal Activity GLXMA (growth controlling degree) ([4]; Rate 125 g a.i./ha): 0%; Pre-emergence Herbicidal Activity DIGSP (growth controlling degree) ([11]; Rate 125 g a.i./ha): 10%; growth controlling degree, AMARE [20]: 100%; Pre-emergence Herbicidal Activity SETVI (growth controlling degree) ([12]; Rate 125 g a.i./ha): 0%; Pre-emergence Herbicidal Activity SIDSP (growth controlling degree) ([15]; Rate 125 g a.i./ha): 0%; Pre-emergence Herbicidal Activity ORYSA (growth controlling degree) ([16]; Rate 125 g a.i./ha): 10%; Pre-emergence Herbicidal Activity ABUTH (growth controlling degree) ([18]; Rate 125 g a.i./ha): 0%; Pre-emergence Herbicidal Activity TRZAX (growth controlling degree) ([19]; Rate 125 g a.i./ha): 0%
